Laboratory results taken from article PMC10096376, “Insecticidal and Synergistic Potential of Three Monoterpenoids against the Yellow Fever Mosquito, Aedes aegypti (Diptera: Culicidae), and the House Fly, Musca domestica (Diptera: Muscidae)” (Molecules, 2023).
Like-named read-outs stand apart in the source and are kept apart here.

What was measured:
Aedes aegypti [1] = experiment: Co-toxicity assay with permethrin (topical); settings: for 1-h knockdown Co-Toxicity Factor / 24-h mortality Co-Toxicity Factor: >+20 potentiation, <−20 antagonism, −20 to +20 additive
Experimental: (§1) For Ae. aegypti, synergism assays were performed similar to the topical applications described previously, with the following modifications: 2 doses (2 µg/mosquito and 10 µg/mosquito) of each monoterpenoid were applied as synergists, similar to previous studies exploring the synergistic potential of natural products in combination with an intermediate dose-level of insecticide alone.
(§2) Mosquitoes were transferred to deli cups and kept at a controlled temperature and humidity (the same conditions as described for the topical application of insecticides and monoterpenoids alone). Again, a minimum of 3 separate rearing cohorts were used among replicates of each dose combination.
(§3) Dose responses were modeled via probit analysis, and their resulting estimates were obtained. […] A control correction option (OPTC command) was used to account for responses to the vehicle control treatments. Co-toxicity values were calculated by the method of [29]. A co-toxicity factor of >+20 signifies potentiation, <−20 antagonism, and −20 to +20 additive.

Musca domestica [2] = experiment: Co-toxicity assay with permethrin (topical); format: in vivo; settings: for 1-h% Mean Knockdown ± SEM, Synergist Alone / 24-h% Mean Mortality ± SEM, Synergist Alone: 10.2 μg PBO, 70 μg carvone, 190 μg menthone, 80 μg fenchone per fly; for times as potent a synergist of permethrin as PBO: 24-h mortality; for 1-h% Mean Knockdown ± SEM, Mixture: near-sublethal synergist dose (10.2 μg PBO, 70 μg carvone, 190 μg menthone, 80 μg fenchone) + permethrin 18 ng; for 1-h knockdown Co-Toxicity Factor / 24-h mortality Co-Toxicity Factor: near-sublethal synergist dose + permethrin, >+20 potentiation, <−20 antagonism, −20 to +20 additive
Experimental: […]. Each dose was formulated in a total volume of 1.5 mL of acetone. A dose of permethrin that produced approximately 50% mortality (18 ng) was used as the treatment. Female flies were sorted into groups of 20 per synergism assay and dosed as previously mentioned (i.e., the same way as in the topical toxicity assays). Flies were assessed for mortality at 24 h.

Aedes aegypti [3] = tested on: Aedes aegypti
Experimental: as §1, §2, §3

acetylcholinesterase = acetylcholinesterase (Musca domestica, UniProt Q7YWJ9); experiment: In vitro inhibition of acetylcholinesterase (Ellman), head homogenate; format: biochemical; settings: at 1 mM, M. domestica preparation; read-out: inhibition of AChE
Experimental: Acetylcholinesterase inhibition was conducted on homogenates of whole-body Ae. aegypti and M. domestica heads using Ellman’s method. For Ae. aegypti, 10 whole female adults were placed in 2 mL microcentrifuge screw cap tubes with 3–5.2 mm zircon/silica beads and homogenized in 500 μL of sodium phosphate buffer (100 mM, pH 7.8) using a Precellys Evolution bead beater (Bertin Corp., Rockville, MD, USA) set to two 15-s pulses of 5600 rpm. Afterward, 500 μL of Triton X-100 buffer (100 mM sodium phosphate, pH 7.8, 0.6% Triton X-100) was added to each tube (final Triton X-100 concentration: 0.3%), inverted several times to mix up the sample, and then centrifuged at 10,000× g for 4 min at 4 °C. The supernatant was used as the enzyme source. The same process was carried out with M. domestica, except three heads were processed in a 1000:1000 μL sodium phosphate buffer and Triton X-100 buffer in the same manner as just described.
Concentration responses were conducted in the wells of a 96-well, clear, flat-bottomed plate. Inhibitor solutions of methomyl or monoterpenoids were first dissolved in DMSO (dimethyl sulfoxide) and then diluted in sodium phosphate buffer (100 mM, pH 7.8, DMSO concentration of 1%). A volume of 10 μL of the inhibitor solution was added to each well, along with 90 μL of sodium phosphate buffer, and finally 10 μL of homogenate. This was incubated on a plate shaker at 400 rpm for 10 min at room temperature. The final concentrations for methomyl were 100 μM, 10 μM, 1 μM, 100 nM, 10 nM, 1 nM, and 0 nM. For the monoterpenoids, the same range was used except the top concentration was 1 mM and the bottom non-zero concentration was 10 nM. The final concentration of DMSO in all wells was 0.09%.
After the 10-min incubation, 100 μL of Ellman’s reagent prepared in sodium phosphate buffer and each corresponding inhibitor concentration were added to the wells using a multichannel pipette.
as §3

Aedes aegypti [4] = tested on: Aedes aegypti; remark: listed apart in the source
Musca domestica [5] = settings: 24 h, topical, adult females, susceptible strain
rat = settings: in vivo; cited from earlier work
rabbit = settings: in vivo; cited from earlier work
[6] = 2 μg synergist + permethrin 0.6 ng/mosquito
[7] = 10 μg synergist + permethrin 0.6 ng/mosquito
[8] = 10 μg synergist per Ae. aegypti
[9] = 2 μg synergist + methomyl 6 ng/mosquito
[10] = 2 μg synergist + methomyl, >+20 potentiation, <−20 antagonism, −20 to +20 additive
[11] = 10 μg synergist + methomyl 6 ng/mosquito
[12] = 10 μg synergist + methomyl, >+20 potentiation, <−20 antagonism, −20 to +20 additive
[13] = 24 h, topical, adult females, susceptible strain

Sequence of acetylcholinesterase (Q7YWJ9 81-660): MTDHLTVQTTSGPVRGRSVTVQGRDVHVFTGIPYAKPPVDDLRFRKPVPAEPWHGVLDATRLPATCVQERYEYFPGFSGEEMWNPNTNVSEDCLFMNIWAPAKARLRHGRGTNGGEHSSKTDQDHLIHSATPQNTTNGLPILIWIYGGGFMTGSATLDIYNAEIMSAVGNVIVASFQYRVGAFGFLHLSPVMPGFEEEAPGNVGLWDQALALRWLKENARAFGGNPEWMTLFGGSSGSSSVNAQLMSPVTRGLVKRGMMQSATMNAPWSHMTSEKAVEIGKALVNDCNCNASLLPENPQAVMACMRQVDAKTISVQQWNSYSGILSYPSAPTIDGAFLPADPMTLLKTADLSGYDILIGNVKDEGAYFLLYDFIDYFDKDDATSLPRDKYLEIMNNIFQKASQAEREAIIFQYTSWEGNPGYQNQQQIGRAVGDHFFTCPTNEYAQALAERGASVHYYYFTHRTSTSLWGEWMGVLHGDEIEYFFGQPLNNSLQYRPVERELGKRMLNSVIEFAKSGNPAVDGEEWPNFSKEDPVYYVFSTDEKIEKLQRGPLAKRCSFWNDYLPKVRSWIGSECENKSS

SMILES	1-h% Mean Knockdown ± SEM, Mixture (Aedes aegypti [1]; [6]) [%]	1-h knockdown Co-Toxicity Factor (Aedes aegypti [1]; 2 μg synergist + permethrin)	24-h mortality Co-Toxicity Factor (Aedes aegypti [1]; 2 μg synergist + permethrin)	1-h% Mean Knockdown ± SEM, Synergist Alone (Aedes aegypti [1]; 2 μg synergist per Ae. aegypti) [%]	24-h% Mean Mortality ± SEM, Synergist Alone (Aedes aegypti [1]; 2 μg synergist per Ae. aegypti) [%]	1-h% Mean Knockdown ± SEM, Mixture (Aedes aegypti [1]; [7]) [%]	1-h knockdown Co-Toxicity Factor (Aedes aegypti [1]; 10 μg synergist + permethrin)	24-h mortality Co-Toxicity Factor (Aedes aegypti [1]; 10 μg synergist + permethrin)	1-h% Mean Knockdown ± SEM, Synergist Alone (Aedes aegypti [1]; [8]) [%]	24-h% Mean Mortality ± SEM, Synergist Alone (Aedes aegypti [1]; [8]) [%]	1-h% Mean Knockdown ± SEM, Synergist Alone (Musca domestica [2]) [%]	24-h% Mean Mortality ± SEM, Synergist Alone (Musca domestica [2]) [%]	times as potent a synergist of permethrin as PBO (Musca domestica [2])	1-h% Mean Knockdown ± SEM, Mixture (Musca domestica [2]) [%]	1-h knockdown Co-Toxicity Factor (Musca domestica [2])	24-h mortality Co-Toxicity Factor (Musca domestica [2])	1-h% Mean Knockdown ± SEM, Synergist Alone (Aedes aegypti [3]; 2 μg applied) [%]	24-h% Mean Mortality ± SEM, Synergist Alone (Aedes aegypti [3]; 2 μg applied) [%]	48-h% Mean Mortality ± SEM, Synergist Alone (Aedes aegypti [3]; 2 μg applied) [%]	1-h% Mean Knockdown ± SEM, Mixture (Aedes aegypti [3]; [9]) [%]	other results
CC12CCC(C1)C(C)(C)C2=O [Fenchone, L-fenchone]	100 ± 0	32.0	160	0 ± 0	2.5 ± 2.5	100 ± 0	16	121	10 ± 4.1	2.5 ± 2.5	0 ± 0	0 ± 0	1.1	100 ± 0	24.0	63.4	0 ± 0	2.5 ± 2.5	7.5 ± 4.8	83.3 ± 3.3	1-h knockdown Co-Toxicity Factor (Aedes aegypti [3]; [10]): −5; 24-h mortality Co-Toxicity Factor (Aedes aegypti [3]; [10]): −11; 48-h mortality Co-Toxicity Factor (Aedes aegypti [3]; [10]): −17; 24-h mortality Co-Toxicity Factor (Aedes aegypti [3]; 2 μg synergist + methomyl, >+20 potentiation, <−20 antagonism, −20 to +20 additive, listed as fenchone): negative; 1-h% Mean Knockdown ± SEM, Synergist Alone (Aedes aegypti [3]; 10 μg applied): 10 ± 4.1%; 24-h% Mean Mortality ± SEM, Synergist Alone (Aedes aegypti [3]; 10 μg applied): 2.5 ± 2.5%; 48-h% Mean Mortality ± SEM, Synergist Alone (Aedes aegypti [3]; 10 μg applied): 10 ± 4.1%; 1-h% Mean Knockdown ± SEM, Mixture (Aedes aegypti [3]; [11]): 93.3 ± 6.7%; 1-h knockdown Co-Toxicity Factor (Aedes aegypti [3]; [12]): −4; 24-h mortality Co-Toxicity Factor (Aedes aegypti [3]; [12]): 22; 48-h mortality Co-Toxicity Factor (Aedes aegypti [3]; [12]): 7; inhibition at 1000 µM (acetylcholinesterase): 1.9 ± 0.3%; LD10 (95% CI) (Aedes aegypti [4]; [13]): 7600 (5000–9500) b ng/mg body weight; LD50 (95% CI) (Aedes aegypti [4]; [13]): 11,300 (10,200–53,400) d ng/mg body weight; LD90 (95% CI) (Aedes aegypti [4]; [13]): 42,000 (28,800–94,900) d ng/mg body weight; LD10 (95% CI) (Musca domestica [5]): 8800 (8100–9400) d ng/mg body weight; LD50 (95% CI) (Musca domestica [5]): 13,200 (12,600–13,800) d ng/mg body weight; LD90 (95% CI) (Musca domestica [5]): 19,900 (18,600–21,600) d ng/mg body weight; Oral LD50 (rat): 6160 (rt) mg compound per kg body weight; Dermal LD50 (rabbit): 5000 (rb) mg compound per kg body weight
CCCCOCCOCCOCc1cc2c(cc1CCC)OCO2 [PBO, piperonyl butoxide, reference compound]	52.5 ± 7.5	−44.7	25	7.5 ± 2.5	12.5 ± 6.3	60 ± 14.7	−39	–	22.5 ± 4.8	72.5 ± 8.5	2 ± 2	6 ± 2.9	–	96 ± 4	16.2	55.9	7.5 ± 2.5	12.5 ± 6.3	15 ± 3.4	–	1-h knockdown Co-Toxicity Factor (Aedes aegypti [3]; in vivo): −5.3; 1-h% Mean Knockdown ± SEM, Mixture (Aedes aegypti [3]; in vivo): 90 ± 10%; 24-h mortality Co-Toxicity Factor (Aedes aegypti [3]; in vivo): 14.3; 48-h mortality Co-Toxicity Factor (Aedes aegypti [3]; in vivo): 20.9
CC(C)[C@@H]1CC[C@@H](C)CC1=O [Menthone, L-menthone]	100 ± 0	19.8	132	7.5 ± 4.8	5 ± 2.9	100 ± 0	13	83	12.5 ± 4.8	15 ± 5	4 ± 2.4	0 ± 0	0.9	95 ± 2.9	12.6	48.4	7.5 ± 4.8	5 ± 2.9	7.5 ± 2.5	100 ± 0	times as strong a synergist of permethrin as PBO (Aedes aegypti [1]; 24-h mortality, 2 μg synergist): 5.3; 1-h knockdown Co-Toxicity Factor (Aedes aegypti [3]; [10]): 0; 48-h mortality Co-Toxicity Factor (Aedes aegypti [3]; [10]): 7; 1-h% Mean Knockdown ± SEM, Synergist Alone (Aedes aegypti [3]; 10 μg applied): 12.5 ± 4.8%; 24-h% Mean Mortality ± SEM, Synergist Alone (Aedes aegypti [3]; 10 μg applied): 15 ± 5%; 48-h% Mean Mortality ± SEM, Synergist Alone (Aedes aegypti [3]; 10 μg applied): 22.5 ± 7.5%; 1-h% Mean Knockdown ± SEM, Mixture (Aedes aegypti [3]; [11]): 100 ± 0%; 1-h knockdown Co-Toxicity Factor (Aedes aegypti [3]; [12]): 0; 24-h mortality Co-Toxicity Factor (Aedes aegypti [3]; [12]): 29; 48-h mortality Co-Toxicity Factor (Aedes aegypti [3]; [12]): 7; times as effective a synergist of methomyl as PBO (Aedes aegypti [3]; 24-h mortality, 2 μg synergist): 2.0; inhibition at 1000 µM (acetylcholinesterase): 3.7 ± 1.2%; LD10 (95% CI) (Aedes aegypti [4]; [13]): 5000 (1000–6300) b ng/mg body weight; LD90 (95% CI) (Aedes aegypti [4]; [13]): 10,000 (8500–13,100) c ng/mg body weight; times as toxic as fenchone (Aedes aegypti [4]; at LD10): about 1.5; times as toxic as fenchone (Aedes aegypti [4]; at LD50): about 1.5; times as toxic as fenchone (Aedes aegypti [4]; at LD90): about 4.2; LD10 (95% CI) (Musca domestica [5]): 5300 (5100–5400) c ng/mg body weight; LD90 (95% CI) (Musca domestica [5]): 8800 (8400–9400) c ng/mg body weight
